This is an account of results in patent publication US20020076412A1, “METHODS FOR MODULATING THE IMMUNE SYSTEM” (priority 1987, published 2002).

Data set [1] deals with CTL. Put plainly: CTL assay with substituted peptides. Type of data set: cell-based.
For data set [2], the system named is EAE. Nature of the data set: Competition with Ala6 and Ala5 for prevention of EAE with MBP (Table 3). Type of data set: in vivo, mice. The procedure: Incidence of EAE was expressed as number of mice with clinical EAE/number of mice immunized. For the induction of EAE, MBP peptide was dissolved in phosphate buffered saline (PBS) and emulsified with complete Freund's adjuvant (CFA) in a 1:1 mixture of PBS and CFA. Mice were injected with 0.2 ml emulsion at the base of the tail. On the same day and 48 h later, pertussis toxin (List Chemicals, Campbell, Calif.) was injected intravenously. Mice were examined daily for signs of EAE. For prevention of EAE, animals were immunized with MBP (0.2 mg), or in a mixture with the competitor peptide (1 mg).

Data set [3] has as its system EAE (RAT). Nature of the data set: Ability of peptide mixed in CFA to cause EAE. The class given is in vivo. As to conditions: rats with EAE / rats immunized with the peptide alone in CFA. The procedure:
(§1) The peptides were tested for their ability to cause EAE when mixed in CFA. […] It was seen that Ala4, Ala6, Ala7, and Ala8 are poor binders to I-E, implying that these residues 4F,6N,7I, and 8V are critical in MHC binding. […] Despite their inability to bind well to I-E, peptides ala6 and ala8 block the development of EAE when mixed with native peptide in a 5:1 molar ratio with CFA (0/6 sick with native plus ala6, 2/6 with native plus ala8, compared to 11/12 with native peptide alone). These competitor peptides Ala6 and Ala8, though poor I-E binders can apparently compete with native peptide and antagonize the T-cell receptor.

Data set [4] concerns 87-99 T-cell line. Put plainly: Competition assay for T-cell proliferation with native peptide. Type of data set: cell-based, Lewis rat. The following applies: blocking of proliferation of 87-99 T-cell line when given with native peptide in vitro. The protocol: The second assay is a competition assay for T-cell proliferation. In this assay, antigen presenting spleen cells are first irradiated and then incubated with native MBP peptide for 2-4 hours. These cells are then washed and further cultured with T-cells reactive to MBP. Various concentrations of candidate peptide analogues are included in cultures for an additional 3 days. Following this incubation period, each culture is pulsed with 1 μCi of [^3H]-thymidine for an additional 12-18 hours. Cultures are then harvested on fiberglass filters and counted as above. Mean CPM and standard error of the mean are calculated from data determined in triplicate cultures. Peptide analogues which inhibit proliferation to approximately 25% at a concentration of 50 μM or greater are suitable for further screening.
(§2) Proliferation Assay: Proliferative responses were determined as described previously (Zamvil, et al., Nature 317:355, 1985). 1×10^4 T-cells were cultured with 5×10^5 X-irradiated (3,000 rad) PL/J splenic APC in 0.2 ml of culture media in 96 well flat-bottomed microtiter plates (Falcon, 3072). Peptides were added to culture giving the final concentrations indicated. At 48 hours incubation, each well was pulsed with 1 μCi ^3H-thymidine and harvested 16 hours later. The mean c.p.m. thymidine incorporation was calculated for triplicate cultures. Standard deviations from replicate cultures were within 10% mean value. Proliferation assays were performed in 96-well microtiter plates. Briefly, 2×10^4 T-cells and 10^6 irradiated thymocytes/well were incubated with stimulation medium only, Con A, or antigen. The cultures were harvested onto glass fiber filters and TdR uptake was assessed by liquid scintillation. Mean cpm were calculated from triplicate wells. In some experiments, competitor peptides, or anti I-A (OX-6) or anti-I-E antibodies (OX-17) were used to evaluate which MHC molecules were used to restrict the T-cell response, or to determine whether peptides could antagonize stimulation by the native peptide.
as §1

For data set [5], the system named is EAE (RAT). Nature of the data set: Prevention of EAE, competitor mixed with native peptide 5:1 in CFA. The class given is in vivo. The following applies: sick/total; competitor plus native peptide 5:1 molar ratio in CFA; native line = native peptide alone. The protocol:
as §1

The target of data set [6] is I-E. Nature of the data set: MHC I-E binding of substituted MBP 87-99 peptides. Also noted: species or system rat. As to conditions: for IC50: read-out: (M*C) IC50 I-E Binding. The source says:
A set of substituted peptides based on the sequence VHFFKNIVTPRT (Seq. ID No. 39), which is identical in rats, mice and human myelin basic protein (MBP), and corresponds to the I-E restricted epitope MBP 87-99 in the rat was produced. The peptides are shown in Table 1 (Seq. ID Nos. 39 to 52 respectively) MHC binding was measure say described in Smilek et al, 1991, Gautam et al 1992a&b.

Data set [7] concerns 87-99 T-cell line. Nature of the data set: Proliferation of encephalitogenic T-cell line raised against native peptide (87-99). The class given is cell-based, rat. The following applies: stimulation of T-cell line raised against native 87-99; grades negative to 4+, key not given. The procedure: As noted above, candidate peptide analogues are first tested for their property of causing or inhibiting proliferation of T-cell lines. In the proliferation assay, MBP reactive T-cell lines may be used as target cells. T-cell lines are established from lymph nodes taken from rats injected with MBP. Lymph node cells are isolated and cultured for 5 to 8 days with MBP and IL-2 as a source of T-cell growth factors. Viable cells are recovered and a second round of stimulation is performed with MBP and irradiated splenocytes as a source of growth factors. After 5 to 6 passages in this manner, the proliferative potential of the cell lines are determined. MBP-reactive lines are used in the proliferation assay. In this assay, T-cell lines are cultured for three days with various concentrations of peptide analogues and irradiated, autologous splenocytes. After three days, 0.5-1.0 μCi of [^3H]-thymidine is added for 12-16 hours. Cultures are harvested and incorporated counts determined. Mean CPM and standard error of the mean are calculated from triplicate cultures.
Development of MBP-specific T-cell lines in the rat: T-cell lines are selected from LN or SC (spinal cords) of rats immunized with guinea pig myelin basic protein or with MBP peptide (200 μg) in CFA. Supernatants from ConA-stimulated Lewis rat splenocytes are used as the source of IL-2 to expand Ag-stimulated T-cells.
as §2

For data set [8], the system named is MS patients. As to conditions: cited from earlier work.

One may read the IC50 as the concentration needed to halve the response being measured.

Several values for one entry are separate records, joined by “and”; a condition that tells them apart may be missing. Equal entries are not always repeated. Entries after “also recorded” stand apart in the source; their conditions may differ.

As to `CC[C@H](C)[C@H](NC(=O)[C@H](CC(N)=O)NC(=O)[C@H](CCCCN)NC(=O)[C@H](Cc1ccccc1)NC(=O)[C@H](Cc1ccccc1)NC(=O)[C@H](Cc1c[nH]cn1)NC(=O)[C@@H](N)C(C)C)C(=O)N[C@H](C(=O)N[C@H](C(=O)N1CCC[C@H]1C(=O)N[C@@H](CCCNC(=N)N)C(=O)N[C@H](C(=O)N1CCC[C@H]1C(=O)O)[C@@H](C)O)[C@@H](C)O)C(C)C` [native, reference compound], the CTL entry in data set [1] is “nega-”. For the same molecule, the “Incidence of EAE” value in data set [2] (peptide alone 0.2 mg in CFA, number with clinical EAE/number immunized, listed as Native MBP Peptide) is 11/12 and 6/6. Also, the “EAE (RAT)” value in data set [3] was 21/21; in data set [5], 11/12. In data set [4], the “Comp Assay Prolif (RAT)” value is reported as “MINUS”. In data set [6], the IC50 was found to be 14 µM.
Regarding `CC(C)[C@H](N)C(=O)N[C@@H](Cc1c[nH]cn1)C(=O)N[C@@H](Cc1ccccc1)C(=O)N[C@@H](Cc1ccccc1)C(=O)N[C@@H](CCCCN)C(=O)N[C@@H](CC(N)=O)C(=O)N[C@@H](C)C(=O)N[C@H](C(=O)N[C@H](C(=O)N1CCC[C@H]1C(=O)N[C@@H](CCCNC(=N)N)C(=O)N[C@H](C(=O)N1CCC[C@H]1C(=O)O)[C@@H](C)O)[C@@H](C)O)C(C)C` [Ala 7], the CTL entry in data set [1] was “plus”. In addition, in data set [3], the “EAE (RAT)” value is 6/6. Moreover, in data set [6], the “binding to I-E / MHC (in words)” value is given as “poor binders” and the IC50 was above 200 µM.
As to `CC[C@H](C)[C@H](NC(=O)[C@H](C)NC(=O)[C@H](CCCCN)NC(=O)[C@H](Cc1ccccc1)NC(=O)[C@H](Cc1ccccc1)NC(=O)[C@H](Cc1c[nH]cn1)NC(=O)[C@@H](N)C(C)C)C(=O)N[C@H](C(=O)N[C@H](C(=O)N1CCC[C@H]1C(=O)N[C@@H](CCCNC(=N)N)C(=O)N[C@H](C(=O)N1CCC[C@H]1C(=O)O)[C@@H](C)O)[C@@H](C)O)C(C)C` [Ala 6], the “Incidence of EAE” value was “completely prevented the clinical development of EAE” in data set [2] (native MBP peptide 0.2 mg mixed with competitor peptide 1 mg); 0/6 in data set [2] (native MBP peptide 0.2 mg mixed with competitor peptide 1 mg, listed as ala 6); 0/6 in data set [2] (peptide alone 0.2 mg in CFA, number with clinical EAE/number immunized). For the same molecule, in data set [7], the Prolif. result is listed as “weakly stimulate”. In addition, the “EAE (RAT)” value was 0/21 in data set [3], “incapable of causing EAE” in data set [3] (listed as Ala6) and 0/6 in data set [5]. Moreover, the “Comp Assay Prolif (RAT)” value is listed as “plus” in data set [4] and “can block proliferation” in data set [4] (listed as Ala6). The “binding to I-E / MHC (in words)” value in data set [6] is “poor binders; also recorded: poor MHC binder”. Moreover, in data set [6], the IC50 was above 200 µM.
For the molecule “IFN-γ: cytokine administered in a pilot study to alleviate symptoms of MS”, the “specific response to MBP” value in data set [8] (in vivo) is given as “increase”.
As for `CC[C@H](C)[C@H](NC(=O)[C@H](CC(N)=O)NC(=O)[C@H](CCCCN)NC(=O)[C@H](Cc1ccccc1)NC(=O)[C@H](Cc1ccccc1)NC(=O)[C@H](Cc1c[nH]cn1)NC(=O)[C@@H](N)C(C)C)C(=O)N[C@@H](C)C(=O)N[C@H](C(=O)N1CCC[C@H]1C(=O)N[C@@H](CCCNC(=N)N)C(=O)N[C@H](C(=O)N1CCC[C@H]1C(=O)O)[C@@H](C)O)[C@@H](C)O` [Ala 8], in data set [1], the CTL entry is reported as “plus”. Further, the Prolif. entry in data set [7] was “weakly stimulate”. Also, the entries for the “EAE (RAT)” value in data set [3], in data set [3] (listed as Ala8) and in data set [5] were 1/15, “incapable of causing EAE” and 2/6, respectively. The “Comp Assay Prolif (RAT)” value is “plus” in data set [4] and “can block proliferation” in data set [4] (listed as Ala8). Further, the “binding to I-E / MHC (in words)” value in data set [6] is on record as “poor binders”. Besides, in data set [6], the concentration for half-maximal inhibition (IC50) is above 200 µM.

B1: IFN-γ: cytokine administered in a pilot study to alleviate symptoms of MS (protein, UniProt P01579 24-161, looked up)
Interferon gamma: QDPYVKEAENLKKYFNAGHSDVADNGTLFLGILKNWKEESDRKIMQSQIVSFYFKLFKNFKDDQSIQKSVETIKEDMNVKFFNSNKKKRDDFEKLTNYSVTDLNVQRKAIHELIQVMAELSPAAKTGKRKRSQMLFRG
For B1, the “patients with clinical exacerbation” value in data set [8] (within one month after initiation of treatment) is recorded as 7 of 18.
